This is an account of results in ChEMBL document CHEMBL3044868, “Effect of pre-sowing and pre-emergence glyphosate applications on weedsin stale seedbed cotton” (2009).

Holding throughout (format): functional
For test [1], the system named is Gossypium hirsutum. Put plainly: Increase of seed cotton yield in Gossypium hirsutum (cotton) at 2.88 kg a.i./ha as pre-emergence treatment 3 to 4 days after sowing with seedbed preparation measured during harvest time.
Test [2] has as its system Gossypium hirsutum. Put plainly: Increase of boll weight in Gossypium hirsutum (cotton) at 2.88 kg a.i./ha as pre-emergence treatment 3 to 4 days after sowing without seedbed preparation measured during harvest time.
Test [3] relates to Gossypium hirsutum. Put plainly: Increase of seed cotton yield in Gossypium hirsutum (cotton) at 2.88 kg a.i./ha sprayed at 2 to 3 days before sowing without seedbed preparation measured during harvest time.
Test [4] relates to Gossypium hirsutum. Put plainly: Increase of boll weight in Gossypium hirsutum (cotton) at 2.88 kg a.i./ha sprayed at 2 to 3 days before sowing without seedbed preparation measured during harvest time.
In test [5] the test system is Gossypium hirsutum. Put plainly: Increase of plant height in Gossypium hirsutum (cotton) at 2.88 kg a.i./ha as pre-emergence treatment 3 to 4 days after sowing without seedbed preparation measured during harvest time.
Test [6] relates to Gossypium hirsutum. Put plainly: Increase of plant height in Gossypium hirsutum (cotton) at 2.88 kg a.i./ha sprayed at 2 to 3 days before sowing without seedbed preparation measured during harvest time.
Test [7] deals with Gossypium hirsutum. Put plainly: Increase of cotton cover in Gossypium hirsutum (cotton) at 2.88 kg a.i./ha sprayed at 2 to 3 days before sowing without seedbed preparation measured 2 weeks after emergence.
Test [8] deals with Gossypium hirsutum. Put plainly: Increase of seed cotton yield in Gossypium hirsutum (cotton) at 2.88 kg a.i./ha as pre-emergence treatment 3 to 4 days after sowing without seedbed preparation measured during harvest time.
Test [9] relates to Gossypium hirsutum. Put plainly: Increase of cotton cover in Gossypium hirsutum (cotton) at 2.88 kg a.i./ha as pre-emergence treatment 3 to 4 days after sowing without seedbed preparation measured 2 weeks after emergence.
For test [10], the system named is Gossypium hirsutum. Put plainly: Increase of plant height in Gossypium hirsutum (cotton) at 2.88 kg a.i./ha as pre-emergence treatment 3 to 4 days after sowing with seedbed preparation measured during harvest time.
In test [11] the test system is Gossypium hirsutum. Put plainly: Increase of boll weight in Gossypium hirsutum (cotton) at 2.88 kg a.i./ha as pre-emergence treatment 3 to 4 days after sowing with seedbed preparation measured during harvest time.
The test system of test [12] is Gossypium hirsutum. Put plainly: Increase of cotton cover in Gossypium hirsutum (cotton) at 2.88 kg a.i./ha as pre-emergence treatment 3 to 4 days after sowing with seedbed preparation measured 2 weeks after emergence.

Each structure is given as a SMILES string.

As to `O=C(O)CNCP(=O)(O)O` [GLYPHOSATE], the figures for the Crop_yield with Gossypium hirsutum [1], in the test with Gossypium hirsutum [3] and in the test with Gossypium hirsutum [8] were 4.8 tons/ha, 6 tons/ha and 5.5 tons/ha, respectively. Besides, the Activity in the test with Gossypium hirsutum [2] is reported as 5.9 g; with Gossypium hirsutum [4] it was 5.2 g; in the test on Gossypium hirsutum [5], 91.1 cm; in the test with Gossypium hirsutum [6], 90.7 cm; with Gossypium hirsutum [7], 11.7%; in the test on Gossypium hirsutum [9], 16.3%. The Activity is recorded as 91.5 cm in the test on Gossypium hirsutum [10], 4.3 g in the test on Gossypium hirsutum [11] and 7% with Gossypium hirsutum [12].
